Legend:
Test in all cases: relative viability (nuclei count vs DMSO), 5 days (fraction); higher = more cells survive
Sunitinib + Pemetrexed = compound: CCN(CC)CCNC(=O)c1c(C)[nH]c(/C=C2\C(=O)Nc3ccc(F)cc32)c1C [Sunitinib] + Nc1nc2[nH]cc(CCc3ccc(C(=O)N[C@@H](CCC(=O)O)C(=O)O)cc3)c2c(=O)[nH]1 [Pemetrexed] (partner 0.2 µM)
Summary of the method: (§1)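 Cells from lung cancer lines were seeded into 1536-well plates and, one day later, dosed by pin tool. Treatments were either a single drug or a fixed dose of an anchor drug with five library-drug doses (not always all listed) in √10 steps. After 5 days, nuclei were stained in a one-step fixation (final 0.05% Triton X-100, 1% formaldehyde, 1 ug/ml Hoechst) and counted on 4× images, and relative viability is the treated-to-vehicle nuclei ratio, as the median of duplicate plates.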

Sunitinib + Olaparib = compound: CCN(CC)CCNC(=O)c1c(C)[nH]c(/C=C2\C(=O)Nc3ccc(F)cc32)c1C [Sunitinib] + O=C(c1cc(Cc2n[nH]c(=O)c3ccccc23)ccc1F)N1CCN(C(=O)C2CC2)CC1 [Olaparib] (partner 8 µM)
Summary of the method: as §1

Sunitinib + Alpelisib = compound: CCN(CC)CCNC(=O)c1c(C)[nH]c(/C=C2\C(=O)Nc3ccc(F)cc32)c1C [Sunitinib] + Cc1nc(NC(=O)N2CCC[C@H]2C(N)=O)sc1-c1ccnc(C(C)(C)C(F)(F)F)c1 [Alpelisib] (partner 2 µM)
Summary of the method: as §1

Sunitinib + Palbociclib = compound: CCN(CC)CCNC(=O)c1c(C)[nH]c(/C=C2\C(=O)Nc3ccc(F)cc32)c1C [Sunitinib] + CC(=O)c1c(C)c2cnc(Nc3ccc(N4CCNCC4)cn3)nc2n(C2CCCC2)c1=O [Palbociclib] (partner 0.5 µM)
Summary of the method: as §1

Row | Cell Line | relative viability (Sunitinib + Pemetrexed; first compound 0.02 µM) | relative viability (Sunitinib + Pemetrexed; first compound 0.06325 µM) | relative viability (Sunitinib + Pemetrexed; first compound 0.2 µM) | relative viability (Sunitinib + Pemetrexed; first compound 0.6325 µM) | relative viability (Sunitinib + Pemetrexed; first compound 2 µM) | relative viability (Sunitinib + Olaparib; first compound 0.02 µM) | relative viability (Sunitinib + Olaparib; first compound 0.06325 µM) | relative viability (Sunitinib + Olaparib; first compound 0.2 µM) | relative viability (Sunitinib + Olaparib; first compound 0.6325 µM) | relative viability (Sunitinib + Olaparib; first compound 2 µM) | relative viability (Sunitinib + Alpelisib; first compound 0.02 µM) | relative viability (Sunitinib + Alpelisib; first compound 0.06325 µM) | relative viability (Sunitinib + Alpelisib; first compound 0.2 µM) | relative viability (Sunitinib + Alpelisib; first compound 0.6325 µM) | relative viability (Sunitinib + Alpelisib; first compound 2 µM) | relative viability (Sunitinib + Palbociclib; first compound 0.02 µM) | relative viability (Sunitinib + Palbociclib; first compound 0.06325 µM) | relative viability (Sunitinib + Palbociclib; first compound 0.2 µM) | relative viability (Sunitinib + Palbociclib; first compound 0.6325 µM) | relative viability (Sunitinib + Palbociclib; first compound 2 µM)
1 | PC-3 [JPC-3] | 1.35 | 1.08 | 1.13 | 1.11 | 1.03 | 1.05 | 1.12 | 1.22 | 1.12 | 0.926 | 1.1 | 1.07 | 1.03 | 1.07 | 0.99 | 0.539 | 0.561 | 0.566 | 0.56 | 0.602
2 | PC-14 | 0.137 | 0.158 | 0.135 | 0.132 | 0.153 | 0.292 | 0.334 | 0.196 | 0.335 | 0.211 | 0.95 | 0.874 | 1.05 | 1.08 | 0.908 | 0.509 | 0.462 | 0.562 | 0.527 | 0.474
3 | RERF-LC-KJ | 0.472 | 0.483 | 0.485 | 0.418 | 0.49 | 0.872 | 0.939 | 1.04 | 0.971 | 0.896 | 0.775 | 0.826 | 0.932 | – | 0.789 | 1.07 | 1.05 | 1.03 | 0.996 | 1.21
4 | SK-LU-1 | 0.944 | 1 | 1.1 | 1.12 | 0.884 | 0.422 | 0.494 | 0.555 | 0.491 | 0.532 | 0.863 | 1.25 | 1.12 | 1.09 | 0.669 | 0.381 | 0.4 | 0.4 | 0.411 | 0.356
5 | SK-MES-1 | 0.851 | 0.946 | 1.09 | 1.13 | 0.903 | 0.643 | 0.7 | 0.877 | – | 0.678 | 0.885 | 1.02 | 0.86 | 1.02 | 0.927 | 0.309 | 0.322 | 0.363 | 0.397 | 0.388
6 | SW 1573 | 0.867 | – | 0.9 | 0.958 | 0.943 | 0.488 | 0.56 | 0.622 | 0.522 | 0.511 | 0.715 | 0.827 | 0.932 | 0.84 | 0.784 | 0.412 | 0.316 | 0.42 | 0.414 | 0.397
7 | UMC-11 | 0.669 | 0.838 | 0.843 | 0.885 | 0.772 | 0.387 | 0.382 | 0.674 | 0.324 | 0.324 | 0.945 | 1.03 | 0.892 | 0.929 | 0.912 | 0.339 | 0.386 | 0.379 | 0.351 | 0.33
